One assay deals with E. coli D22 strain. Put plainly: microbe, parasite or virus in culture. In kind it is cell-based. An excerpt: E. coli strain D22 (F-, IpxC101, proA23, lac-28, tsx-81, trp-30, his-51, tufA1, rpsL173(strR), ampCp-1 was purchased at E. coli Genetic Stock Center (Yale University) and used in the determination of MIC and in the peptide penetration assays. E. coli ATCC23724 cells were used to infect D. melanogaster flies. 70S ribosomes were purified from the E. coli MRE600 strain (Accession AY140951) and BL21 (DE3) pLys strain was used for production of the DnaN protein.
(§1) E. coli strains were cultivated on either agar or liquid 1× Mueller Hinton broth unless specified. MIC assays were performed in duplicate in 96-well microtiter plates on the basis of the protocol recommended by the Clinical and Laboratory Standards Institute. Briefly, a mix of 5-6 fresh (less than 36 hours) colonies grown on MH agar plates were inoculated in 3 ml of MH broth and incubated for about 16 h at 37° C. under agitation. 30 μl of this saturated culture were inoculated in 3 ml of fresh medium and allowed to grow until OD600 nm of about 0.6-0.8. Dilution to an OD600 nm of 0.002 was made in MH broth. Within a time laps not exceeding 30 min, 50 μl of this cell suspension was added to 50 μl of MH broth (containing or not the peptide/antibiotic diluted in MH broth) in wells of a 96-well round bottom microwell plate (Greiner; final cell density about 2 to 5×10^5 cfu/ml). Plates were incubated at 37° C. for 18-24 h and final turbidity of each well was measured at 620 nm using a Multiskan FC microplate reader (Thermo Scientific). MIC was defined as the minimal antibiotic concentration that result in no increase of turbidity at that time. Each MIC determination was performed in duplicate and at least in two independent experiments. Plating of 75 μl of the content of the wells of interest on LB Agar plates was used to determine the MBC that is defined by a decrease of at least 99.9% of cell viability as compared to the number of viable cells in the inoculum (about 2 to 5×10^4 cfu).

Assay [1] relates to E. coli 70S ribosome (^Ec70S). Put plainly: ITC, peptide interaction with E. coli 70S ribosome. Type of assay: binding. Here is the method:
E. coli MRE600 cells were grown at 37° C. in LB medium until OD^600=1. Cells were centrifuged at 4° C., and pellets were resuspended in buffer A (20 mM Tris HCl pH 7.5; 200 mM NH4Cl; 20 mM MgCl2; 0.1 mM EDTA; 6 mM β-mercaptoethanol) and lysed using a French press at 1.6 kbar. The crude lysate was centrifuged (18 200 rpm) for 30 mn at 4° C. The supernatant was further centrifuged (47000 rpm) at 4° C. for 4 hours and the pellet resuspended in 12.5 ml of buffer A. This solution was laid on a 30% sucrose cushion and centrifuged (34 000 rpm) for 19 hours at 4° C. The ribosome pellet was resuspended in 12.5 ml buffer B (20 mM Tris HCl pH 7.5; 50 mM NH4Cl; 10 mM MgCl2; 0.1 mM EDTA; 6 mM β-mercaptoethanol) and centrifuged again (18 200 rpm) for 1 hour at 4° C. The supernatant was concentrated on Centrikon 100K (Millipore) and washed extensively with ITC 70S buffer. Ribosome concentration was determined by UV absorption at 260 nm. Samples were snap frozen in liquid nitrogen and kept at −80° C.
(§2) ITC experiments were performed on a iTC200 (Microcal Malvern Panalytical) or PEAQ-ITC instrument (Microcal Malvern Panalytical). The E. coli SC were washed extensively with ITC buffer (R1 buffer: 10 mM Hepes pH 7.4, 0.15 M NaCl, 3 mM EDTA) on Centrikon 10K at 4° C. before ITC experiments. […] Similarly, E. coli 70S ribosome particles were also washed extensively with ITC 70S buffer (50 mM Tris HCl pH7.5, 30 mM KCl, 70 mM NH4Cl, 7 mM MgCl2, 1 mM DTT, 5% glycerol) on Centrikon 100K at 4° C. before ITC experiments. Peptides (100 to 400 μM) were titrated at 30° C. (303.15 K) in sequential injections (usually 2 μl each) into a SC (20 or 30 μM) or 70S (10 to 15 μM) solution. Data were corrected from control experiments in which peptides were injected in ITC buffer solution. Each titration was performed at least twice. Analyses of experimental data were performed with AFFINImeter software (https://www.affinimeter.com; S4S, Santiago de Compostela, Spain).
The lack of interaction with the ribosome of E. coli has been measured by ITC at 30° C.:
The interactions of these peptides with the E. coli SC (beta ring) and the ribosome were measured by ITC at […]: […]

For assay [2], the system named is E. coli ATCC 25922 (DSM 1103) strain. In kind it is cell-based. The conditions noted are these: ATCC 25922, 36 h. Here is the method:
as §1
The antimicrobial activities of these peptides have been tested against the E. coli ATCC 25922 (DSM 1103) strain in 1× Mueller-Hinton broth as mentioned above.
The antimicrobial activities of these peptides and controls have been tested against the E. coli ATCC 25922 (DSM 1103) strain in 1× Mueller-Hinton broth.

Assay [3] addresses T1, E. coli SC (^EcSC, beta ring, DnaN) (Escherichia coli, UniProt P0A988).
T1 construct: inferred from the pET15b vector and the Ni-NTA/imidazole purification; made in house; host or cells: E. coli BL21 (DE3) pLys
Put plainly: ITC, peptide interaction with E. coli sliding clamp. Type of assay: binding. Here is the method: The DnaN protein was expressed from plasmids pET15b, containing the dnaN gene from E. coli, transfected in BL21 (DE3) pLys E. coli strain. Cells were grown in LB at 37° C. to OD 0.5, then induced by IPTG (0.1 mM) at 28° C. overnight. DnaN protein was first enriched on a Ni-NTA column, eluted with an imidazole step (300 mM) and further purified on a Source Q column in buffer containing 20 mM Tris HCl pH 7.5, 0.5 mM EDTA and 10% glycerol, using a gradient from 0 to 0.5 M NaCl. After a final ultracentrifugation (45K, 1 h, 20° C.), soluble proteins were concentrated on a Centricon 30K (Millipore) in the same buffer and stored at 4° C. in 2 M ammonium sulfate.
as §2, with “[…] […]” for “Peptides (100 to 400 μM) were titrated at 30° C. (303.15 K) in sequential injections (usually 2 μl each) into a SC (20 or 30 μM) or 70S (10 to 15 μM) solution.”

[4] abbreviates: ITC, 30° C., E. coli ribosome, FITC-Onc112 series.
[5] abbreviates: ITC 30° C. (303.15 K), Table 2A, ^EcSC, Ni = no specific interaction.
Setting [6] is: ITC 30° C., Table 2A, ^EcSC, Ni = no specific interaction.
Setting [7] is: ITC 30° C., Table 2B, ^Ec70S, Ni = no specific interaction.
The mark [8] stands for this setting: ITC 30° C., Table 2B, ^Ec70S, Ni = no specific interaction, FITC peptides (*) values not well defined.
Where [9] appears, read: E. coli D22, Mueller Hinton broth, range of at least 2 independent experiments.

Structures are written as SMILES. Converted amounts (≈) assume the structure as drawn. Read-outs that look alike come from different tables or passages of the source. Square brackets hold non-standard residues; d marks the D form. Peptide text beside a SMILES is read from it. * marks the point of attachment. 5FAM = O=C1OC2(c3ccc(O)cc3Oc3cc(O)ccc32)c2ccc(C(=O)*)cc21; Cha = N[C@@H](CC1CCCCC1)C(=O)O

T1 sequence (P0A988 whole entry): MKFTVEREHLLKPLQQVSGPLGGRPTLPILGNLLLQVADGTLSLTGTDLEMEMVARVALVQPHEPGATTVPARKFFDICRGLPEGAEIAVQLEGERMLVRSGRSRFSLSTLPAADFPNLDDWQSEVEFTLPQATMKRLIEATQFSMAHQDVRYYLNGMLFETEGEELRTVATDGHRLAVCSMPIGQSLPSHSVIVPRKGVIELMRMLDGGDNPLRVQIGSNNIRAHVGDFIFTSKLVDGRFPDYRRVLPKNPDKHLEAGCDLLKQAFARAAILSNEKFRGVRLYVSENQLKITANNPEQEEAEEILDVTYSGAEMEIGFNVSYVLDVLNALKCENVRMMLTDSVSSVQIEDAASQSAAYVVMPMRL

Take `CC1(C)S[C@@H]2[C@H](NC(=O)[C@H](N)c3ccccc3)C(=O)N2[C@H]1C(=O)O` [Ampicillin, reference compound]: the MIC in the assay with E. coli D22 strain (Escherichia coli, D22STRAIN, E. coli D22, Mueller Hinton broth, range of at least 2 independent experiments, read-out: MIC) lay in the range of 22.9 to 45.8 µM; in the assay on E. coli D22 strain (Escherichia coli, D22STRAIN, E. coli D22, Mueller Hinton broth, range of at least 2 independent experiments, read-out: MIC (μg/ml)), 8 to 16 µg/mL. In addition, the MBC in the assay with E. coli D22 strain (Escherichia coli, D22STRAIN, E. coli D22, decrease of at least 99.9% of cell viability, read-out: MBC) was 16 µg/mL (≈ 45.8 µM).
`CC[C@H](C)[C@H](NC(=O)[C@@H](CCCNC(=N)N)NC(=O)[C@H](CCCNC(=N)N)NC(=O)[C@@H]1CCCN1C(=O)[C@@H]1CCCN1C(=O)[C@H](CCCNC(=N)N)NC(=O)[C@@H]1CCCN1C(=O)[C@H](CCCNC(=N)N)NC(=O)[C@@H]1CCCN1C(=O)[C@H](CC(C)C)NC(=O)[C@H](Cc1ccc(O)cc1)NC(=O)[C@@H]1CCCN1C(=O)[C@@H]1CCCN1C(=O)[C@H](CCCCN)NC(=O)[C@H](CC(=O)O)NC(=O)[C@@H](NC(=O)c1ccc2c(c1)C(=O)OC21c2ccc(O)cc2Oc2cc(O)ccc21)C(C)C)C(=O)N[C@@H](Cc1ccc(O)cc1)C(=O)N[C@@H](CC(N)=O)C(=O)N[C@H](CCCNC(=N)N)C(N)=O` [CA3-124] (5FAM-VDKPPYLPRPRPPR[dR]IYN[dR]-NH2): in assay [1] (setting [4]), the Kd stood at 7700 nM, the “ΔG (kcal/mol)” value is −7.1 (±0.4) kcal/mol and the “ΔH” value is -22.6 kcal/mol. For the same molecule, the “MIC” value in assay [2] was in the range of 32 to 64 µM.
Regarding `CC[C@H](C)[C@H](NC(=O)[C@@H]1CCCN1C(=O)[C@H](CCCNC(=N)N)NC(=O)[C@@H]1CCCN1C(=O)[C@@H]1CCCN1C(=O)[C@@H](NC(=O)[C@@H]1CCCN1C(=O)[C@H](CCCNC(=N)N)NC(=O)[C@@H]1CCCN1C(=O)[C@H](CC(C)C)NC(=O)[C@H](Cc1ccc(O)cc1)NC(=O)[C@H](CO)NC(=O)CNC(=O)[C@H](CCCCN)NC(=O)[C@H](CC(=O)O)NC(=O)[C@@H](N)C(C)C)[C@@H](C)O)C(=O)N[C@@H](Cc1ccc(O)cc1)C(=O)N[C@@H](CC(N)=O)C(=O)N[C@@H](CCCNC(=N)N)C(=O)N[C@@H](CC(N)=O)C(=O)NCC(=O)N1CCC[C@H]1C(=O)N[C@@H](CCCNC(=N)N)C(=O)N[C@@H](CCC(N)=O)C(=O)N[C@@H](CC1CCCCC1)C(=O)N[C@@H](CC(=O)O)C(=O)N[C@@H](CC(C)C)C(=O)N[C@@H](Cc1ccccc1)C(=O)O` [Peptide P116] (H-VDKGSYLPRPTPPRPIYNRNGPRQ[Cha]DLF-OH), in assay [3] (ITC 30° C.), the “interaction with ^EcSC, in words” value was “as efficiently as P7 alone”. Further, in assay [3] (setting [5]), the “ΔH” value is -13.9 kcal/mol. Besides, in assay [3] (setting [6]), the “ΔG” value is -9.61 kcal/mol and the “−TΔS” value came out at 4.3 kcal/mol. Further, the “interaction with ^Ec70S, in words” value in assay [1] (ITC 30° C.) is given as “efficiently interact”. Also, in assay [1] (setting [7]), the affinity, expressed as Kd, was 37 nM. Also, in assay [1] (setting [8]), the “ΔG” value is -10.3 kcal/mol, the “ΔH” value was -22.3 kcal/mol and the “−TΔS” value was 12 kcal/mol. Further, the “affinity for the ribosome relative to affinity for SC” value in assay [1] (from Table 2, ^Ec70S versus ^EcSC) is on record as “three times higher affinity”. For the same molecule, in the assay with E. coli D22 strain (D22 strain), the “MBC” value came out at 8 µg/mL (≈ 2.42 µM), the “MIC (μM)” value lay within 1.2 to 2.4 µM and the “MIC (μg/ml)” value lay in the range of 4 to 8 µg/mL. Besides, the “antibacterial activity, in words” value with E. coli D22 strain (E. coli D22, microdilution broth assay) is recorded as “no increase in the activity”.
In the case of `CC[C@H](C)[C@H](NC(=O)[C@@H]1CCCN1C(=O)[C@H](CCCNC(=N)N)NC(=O)[C@@H]1CCCN1C(=O)[C@@H]1CCCN1C(=O)[C@@H](NC(=O)[C@@H]1CCCN1C(=O)[C@H](CCCNC(=N)N)NC(=O)[C@@H]1CCCN1C(=O)[C@H](CC(C)C)NC(=O)[C@H](Cc1ccc(O)cc1)NC(=O)[C@H](CO)NC(=O)CNC(=O)[C@H](CCCCN)NC(=O)[C@H](CC(=O)O)NC(=O)[C@@H](N)C(C)C)[C@@H](C)O)C(=O)N[C@@H](Cc1ccc(O)cc1)C(=O)N[C@@H](CC(N)=O)C(=O)N[C@@H](CCCNC(=N)N)C(=O)N[C@@H](CC(N)=O)C(=O)NCC(=O)N1CCC[C@H]1C(=O)N[C@@H](CCCNC(=N)N)C(=O)N[C@@H](CC1CCCCC1)C(=O)N[C@@H](Cc1ccccc1)C(=O)N[C@@H](CCC(N)=O)C(=O)N[C@@H](CC(C)C)C(=O)N[C@@H](CC(=O)O)C(=O)O` [Peptide P188], in assay [3] (ITC 30° C.), the “interaction with ^EcSC, in words” value is “fail to interact”. Also, the “ΔH (kcal/mole)” value in assay [3] (setting [5]) is “Ni”. In assay [3] (setting [6]), the “Kd (nM)” value is listed as “Ni”, the “ΔG (kcal/mole)” value is recorded as “Ni” and the “−TΔS (kcal/mole)” value is given as “Ni”. Besides, the Kd in assay [1] (setting [7]) was 75.8 nM. In addition, in assay [1] (setting [8]), the “ΔG” value is -9.89 kcal/mol, the “ΔH” value is -15.4 kcal/mol and the “−TΔS” value turned out to be 5.5 kcal/mol. In the assay with E. coli D22 strain (D22 strain), the “MIC (μM)” value was in the range of 1.2 to 2.4 µM and the “MIC (μg/ml)” value lay within 4 to 8 µg/mL.
For `CN(C)[C@@H]1C(=O)C(C(N)=O)=C(O)[C@@]2(O)C(=O)C3=C(O)c4c(O)cccc4[C@@](C)(O)[C@H]3C[C@@H]12` [Tetracyclin, reference compound], in the assay on E. coli D22 strain (setting [9]), the “MIC (μM)” value lay in the range of 0.56 to 1.12 µM and the “MIC (μg/ml)” value was 0.25 to 0.5 µg/mL. Moreover, the “MBC” value in the assay with E. coli D22 strain (E. coli D22, decrease of at least 99.9% of cell viability) was determined as 0.5 µg/mL (≈ 1.13 µM).

The values above are taken from patent publication US12098217B2, “Fusion peptides as antimicrobial agents” (CENTRE NATIONAL DE LA RECHERCHE SCIENTIFIQUE, priority 2019, dated 2024).
